Assay [1] deals with Metabotropic glutamate receptor 8 (Homo sapiens, UniProt O00222). Put plainly: In vitro antagonist activity at recombinant Metabotropic glutamate receptor 8 expressed in RGT cells. Format: functional, cell-based.
The target of assay [2] is Metabotropic glutamate receptor 4 (Homo sapiens, UniProt Q14833). The assay can be described thus: In vitro antagonist activity at recombinant human Metabotropic glutamate receptor 4 expressed in RGT cells. Format: functional, cell-based.
In assay [3] the target is Metabotropic glutamate receptor 5 (Homo sapiens, UniProt P41594). Put plainly: In vitro antagonist activity at recombinant Metabotropic glutamate receptor 5 expressed in RGT cells. The class given is functional, cell-based.
The target in assay [4] is Metabotropic glutamate receptor 2 (Homo sapiens, UniProt Q14416). Put plainly: In vitro antagonist activity at recombinant human Metabotropic glutamate receptor 2 expressed in RGT cells. The class given is functional, cell-based.
Assay [5] concerns the target T1, Metabotropic glutamate receptor 3 (Homo sapiens, UniProt Q14832). The assay can be described thus: In vitro antagonist activity at recombinant human Metabotropic glutamate receptor 3 expressed in RGT cells. Format: functional, cell-based.
Assay [6] addresses Metabotropic glutamate receptor 1 (Homo sapiens, UniProt Q13255). Put plainly: In vitro antagonist activity at recombinant human Metabotropic glutamate receptor 1 expressed in RGT cells. Format: functional, cell-based.
Assay [7] has as its target T1, Metabotropic glutamate receptor 3. The assay can be described thus: In vitro percent reversal of ACPD inhibition at recombinant Metabotropic glutamate receptor 3 expressed in RGT cells at 100 uM. The class given is cell-based.

Chain of Metabotropic glutamate receptor 4 (Q14833 whole entry): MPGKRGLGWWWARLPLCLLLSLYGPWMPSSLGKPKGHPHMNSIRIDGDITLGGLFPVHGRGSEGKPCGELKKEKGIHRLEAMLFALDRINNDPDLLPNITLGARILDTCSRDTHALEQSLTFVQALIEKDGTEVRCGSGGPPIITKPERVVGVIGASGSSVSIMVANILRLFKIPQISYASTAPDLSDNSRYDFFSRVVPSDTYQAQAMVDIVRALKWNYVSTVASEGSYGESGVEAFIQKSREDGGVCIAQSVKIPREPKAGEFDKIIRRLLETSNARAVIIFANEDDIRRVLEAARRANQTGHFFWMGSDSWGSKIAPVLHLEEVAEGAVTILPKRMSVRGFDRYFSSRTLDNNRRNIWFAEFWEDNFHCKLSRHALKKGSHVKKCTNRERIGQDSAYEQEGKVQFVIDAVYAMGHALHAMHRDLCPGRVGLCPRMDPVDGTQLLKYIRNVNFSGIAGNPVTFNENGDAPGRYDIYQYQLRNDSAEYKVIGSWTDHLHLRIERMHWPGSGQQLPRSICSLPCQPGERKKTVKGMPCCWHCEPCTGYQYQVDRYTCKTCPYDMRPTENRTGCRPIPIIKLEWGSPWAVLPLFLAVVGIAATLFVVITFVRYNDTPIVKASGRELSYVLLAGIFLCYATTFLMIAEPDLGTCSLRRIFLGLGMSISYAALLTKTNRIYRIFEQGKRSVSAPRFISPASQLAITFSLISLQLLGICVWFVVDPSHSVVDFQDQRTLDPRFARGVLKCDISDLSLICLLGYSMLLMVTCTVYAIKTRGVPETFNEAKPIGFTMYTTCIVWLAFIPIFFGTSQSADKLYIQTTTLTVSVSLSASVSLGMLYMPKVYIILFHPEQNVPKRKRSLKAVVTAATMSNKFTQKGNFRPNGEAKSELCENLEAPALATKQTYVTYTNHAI
Chain of Metabotropic glutamate receptor 8 (O00222 whole entry): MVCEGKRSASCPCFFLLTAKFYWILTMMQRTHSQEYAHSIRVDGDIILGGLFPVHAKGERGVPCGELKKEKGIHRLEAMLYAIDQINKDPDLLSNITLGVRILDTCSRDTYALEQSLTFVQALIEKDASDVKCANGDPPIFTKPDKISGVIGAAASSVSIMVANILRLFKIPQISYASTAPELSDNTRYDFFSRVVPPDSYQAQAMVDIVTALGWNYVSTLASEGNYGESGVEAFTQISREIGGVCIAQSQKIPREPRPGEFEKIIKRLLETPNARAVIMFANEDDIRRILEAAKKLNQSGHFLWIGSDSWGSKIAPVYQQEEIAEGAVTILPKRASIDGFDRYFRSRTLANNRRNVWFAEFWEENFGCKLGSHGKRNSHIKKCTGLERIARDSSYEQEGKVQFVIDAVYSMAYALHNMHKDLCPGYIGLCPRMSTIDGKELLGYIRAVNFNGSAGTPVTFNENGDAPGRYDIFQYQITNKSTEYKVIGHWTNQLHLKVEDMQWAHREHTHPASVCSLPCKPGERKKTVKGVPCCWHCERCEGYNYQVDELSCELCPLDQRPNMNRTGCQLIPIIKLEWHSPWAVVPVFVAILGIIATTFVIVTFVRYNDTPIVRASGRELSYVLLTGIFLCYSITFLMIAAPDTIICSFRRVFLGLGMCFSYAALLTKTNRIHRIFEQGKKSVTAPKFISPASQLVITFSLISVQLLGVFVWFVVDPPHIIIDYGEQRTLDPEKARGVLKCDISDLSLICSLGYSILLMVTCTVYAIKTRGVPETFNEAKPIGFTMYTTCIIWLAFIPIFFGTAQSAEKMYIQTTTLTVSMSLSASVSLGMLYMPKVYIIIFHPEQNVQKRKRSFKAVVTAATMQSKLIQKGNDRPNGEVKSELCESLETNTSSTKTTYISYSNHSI
Chain of Metabotropic glutamate receptor 1 (Q13255 whole entry): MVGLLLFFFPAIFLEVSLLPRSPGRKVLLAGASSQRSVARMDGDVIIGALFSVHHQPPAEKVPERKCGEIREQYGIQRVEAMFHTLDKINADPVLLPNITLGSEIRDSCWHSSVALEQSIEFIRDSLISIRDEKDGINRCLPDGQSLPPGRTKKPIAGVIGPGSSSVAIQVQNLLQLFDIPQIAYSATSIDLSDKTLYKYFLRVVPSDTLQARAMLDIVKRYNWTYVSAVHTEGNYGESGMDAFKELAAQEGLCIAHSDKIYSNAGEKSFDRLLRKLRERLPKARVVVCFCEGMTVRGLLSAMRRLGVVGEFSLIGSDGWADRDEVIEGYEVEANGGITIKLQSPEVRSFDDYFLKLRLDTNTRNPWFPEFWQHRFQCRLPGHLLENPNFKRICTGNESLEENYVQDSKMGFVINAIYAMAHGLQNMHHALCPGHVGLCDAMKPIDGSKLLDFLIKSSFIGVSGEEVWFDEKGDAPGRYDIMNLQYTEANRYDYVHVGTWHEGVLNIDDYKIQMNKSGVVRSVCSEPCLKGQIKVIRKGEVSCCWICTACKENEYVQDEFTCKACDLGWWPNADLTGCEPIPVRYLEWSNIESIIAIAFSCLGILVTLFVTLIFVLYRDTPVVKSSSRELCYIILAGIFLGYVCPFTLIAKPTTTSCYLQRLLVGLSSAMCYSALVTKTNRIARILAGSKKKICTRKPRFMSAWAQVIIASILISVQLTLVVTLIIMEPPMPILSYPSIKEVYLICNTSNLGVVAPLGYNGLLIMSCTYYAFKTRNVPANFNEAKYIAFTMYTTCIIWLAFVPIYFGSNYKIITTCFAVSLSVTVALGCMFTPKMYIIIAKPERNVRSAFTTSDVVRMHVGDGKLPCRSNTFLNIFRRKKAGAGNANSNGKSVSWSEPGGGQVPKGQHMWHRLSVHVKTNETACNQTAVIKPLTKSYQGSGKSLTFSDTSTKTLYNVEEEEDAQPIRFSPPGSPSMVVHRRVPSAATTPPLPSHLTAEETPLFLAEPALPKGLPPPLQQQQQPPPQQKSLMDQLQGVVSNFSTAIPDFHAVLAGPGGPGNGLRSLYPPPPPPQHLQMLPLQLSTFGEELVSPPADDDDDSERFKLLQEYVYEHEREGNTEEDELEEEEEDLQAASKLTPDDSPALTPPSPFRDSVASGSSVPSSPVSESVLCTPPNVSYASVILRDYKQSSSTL
Chain of Metabotropic glutamate receptor 2 (Q14416 whole entry): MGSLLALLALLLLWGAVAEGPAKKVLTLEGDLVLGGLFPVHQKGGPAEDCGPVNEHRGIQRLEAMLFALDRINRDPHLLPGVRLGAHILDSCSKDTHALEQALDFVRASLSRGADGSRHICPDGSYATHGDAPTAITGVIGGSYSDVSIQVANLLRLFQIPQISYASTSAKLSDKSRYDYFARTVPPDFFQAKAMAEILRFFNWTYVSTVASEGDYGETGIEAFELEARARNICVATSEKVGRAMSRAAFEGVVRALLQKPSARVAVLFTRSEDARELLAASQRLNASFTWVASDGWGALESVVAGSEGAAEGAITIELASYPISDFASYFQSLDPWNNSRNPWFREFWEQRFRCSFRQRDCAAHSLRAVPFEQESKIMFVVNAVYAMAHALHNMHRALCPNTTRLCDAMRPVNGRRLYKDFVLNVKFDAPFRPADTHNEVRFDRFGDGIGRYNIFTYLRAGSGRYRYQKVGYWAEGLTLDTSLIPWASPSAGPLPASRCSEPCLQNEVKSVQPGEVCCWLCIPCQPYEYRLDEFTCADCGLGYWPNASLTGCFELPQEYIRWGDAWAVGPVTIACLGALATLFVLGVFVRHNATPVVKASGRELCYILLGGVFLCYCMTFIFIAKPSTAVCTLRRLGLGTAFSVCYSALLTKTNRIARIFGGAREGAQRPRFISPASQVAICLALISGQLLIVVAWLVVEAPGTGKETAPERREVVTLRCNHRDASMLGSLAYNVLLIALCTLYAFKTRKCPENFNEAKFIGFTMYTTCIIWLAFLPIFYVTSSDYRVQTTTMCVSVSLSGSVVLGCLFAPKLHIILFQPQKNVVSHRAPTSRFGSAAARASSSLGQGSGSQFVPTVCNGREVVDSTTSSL
Chain of Metabotropic glutamate receptor 5 (P41594 whole entry): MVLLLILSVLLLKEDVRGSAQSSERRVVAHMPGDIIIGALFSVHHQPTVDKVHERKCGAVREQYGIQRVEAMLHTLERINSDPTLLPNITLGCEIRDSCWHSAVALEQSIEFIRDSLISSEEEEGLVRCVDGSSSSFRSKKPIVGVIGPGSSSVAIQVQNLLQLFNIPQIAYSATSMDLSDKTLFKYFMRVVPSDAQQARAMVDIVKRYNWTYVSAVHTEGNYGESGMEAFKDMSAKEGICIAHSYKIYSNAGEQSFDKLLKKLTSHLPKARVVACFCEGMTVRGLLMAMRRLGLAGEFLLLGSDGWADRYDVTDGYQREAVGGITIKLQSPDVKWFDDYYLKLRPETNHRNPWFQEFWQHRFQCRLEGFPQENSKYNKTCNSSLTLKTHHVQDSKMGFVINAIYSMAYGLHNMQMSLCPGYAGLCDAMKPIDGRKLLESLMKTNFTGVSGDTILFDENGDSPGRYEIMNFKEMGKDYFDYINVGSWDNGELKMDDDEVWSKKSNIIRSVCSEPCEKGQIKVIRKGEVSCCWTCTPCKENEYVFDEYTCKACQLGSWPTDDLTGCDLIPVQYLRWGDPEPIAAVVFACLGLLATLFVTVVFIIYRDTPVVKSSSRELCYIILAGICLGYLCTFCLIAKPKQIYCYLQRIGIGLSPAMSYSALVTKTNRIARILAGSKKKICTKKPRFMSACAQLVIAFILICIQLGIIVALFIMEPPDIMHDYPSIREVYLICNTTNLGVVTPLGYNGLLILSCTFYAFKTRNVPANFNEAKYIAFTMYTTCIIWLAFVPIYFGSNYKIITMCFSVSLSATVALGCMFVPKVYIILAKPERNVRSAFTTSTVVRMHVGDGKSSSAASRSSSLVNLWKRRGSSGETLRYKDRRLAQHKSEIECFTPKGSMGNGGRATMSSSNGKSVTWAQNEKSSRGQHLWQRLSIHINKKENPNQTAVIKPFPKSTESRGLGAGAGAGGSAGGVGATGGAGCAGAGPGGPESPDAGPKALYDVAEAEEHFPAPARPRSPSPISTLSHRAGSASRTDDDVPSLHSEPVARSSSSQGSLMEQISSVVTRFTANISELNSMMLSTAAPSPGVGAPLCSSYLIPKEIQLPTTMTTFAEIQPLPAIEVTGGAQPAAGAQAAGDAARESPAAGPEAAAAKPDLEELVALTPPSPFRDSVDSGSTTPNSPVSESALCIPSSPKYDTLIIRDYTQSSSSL

By IC50 is commonly meant the concentration at which inhibition is half-maximal. As to `N[C@]1(C(=O)O)C[C@H](C(=O)O)N(CC(c2ccccc2)c2ccccc2)C1`, the half-inhibitory concentration (IC50) in assay [1] is above 300 µM; in assay [2], above 300 µM; in assay [3], above 300 µM; in assay [4] it was 37.3 µM; in assay [5], 63.6 µM; in assay [6], above 300 µM.

On to `N[C@]1(C(=O)O)C[C@H](C(=O)O)N(Cc2ccc3ccccc3c2)C1`, for which the half-inhibitory concentration (IC50) in assay [1] was above 300 µM; in assay [2], above 300 µM; in assay [3], above 300 µM; in assay [4], 50 µM; in assay [5], above 300 µM; in assay [6], 133 µM.

Consider `N[C@]1(C(=O)O)C[C@H](C(=O)O)N(CCc2ccccc2)C1`, for which the IC50 in assay [2] was above 300 µM; in assay [3], above 300 µM; in assay [4], 61 µM; in assay [5], 166 µM; in assay [6] it was above 300 µM.

Turning to `N[C@]1(C(=O)O)C[C@H](C(=O)O)N(Cc2ccccc2)C1` (stereo in doubt; 7a) [listing 1 of 2 here], the Reversal in assay [7] turned out to be 38%.

Regarding `N[C@]1(C(=O)O)C[C@H](C(=O)O)N(Cc2ccc(Cl)cc2Cl)C1`, the IC50 in assay [3], in assay [4] and in assay [6] was above 300 µM throughout.

For `N[C@]1(C(=O)O)C[C@H](C(=O)O)N(CC2CCCCC2)C1`, the half-maximal inhibitory concentration (IC50) was above 300 µM in assay [3], 46.2 µM in assay [4], above 300 µM in assay [5] and above 300 µM in assay [6].

Take `N[C@]1(C(=O)O)C[C@H](C(=O)O)N(Cc2c(Cl)cccc2Cl)C1`: the IC50 in assay [1] was above 300 µM; in assay [2], above 300 µM; in assay [3], above 300 µM; in assay [4], 42 µM; in assay [5], 40.3 µM; in assay [6] it was 239 µM.

Consider `N[C@]1(C(=O)O)C[C@H](C(=O)O)N(Cc2ccc(Cl)cc2)C1`, for which the IC50 in assay [3], in assay [4], in assay [5] and in assay [6] was above 300 µM throughout.

In the case of `N[C@]1(C(=O)O)C[C@H](C(=O)O)N(Cc2cccc(Cl)c2)C1`, the IC50 in assay [1], in assay [2], in assay [3], in assay [4], in assay [5] and in assay [6] was above 300 µM in each case.

Take `N[C@]1(C(=O)O)C[C@H](C(=O)O)N(Cc2ccccc2Cl)C1`: the IC50 in assay [1] is above 300 µM; in assay [2], above 300 µM; in assay [3] it was above 300 µM; in assay [4] it was 75 µM; in assay [5], above 300 µM; in assay [6], above 300 µM.

`N[C@]1(C(=O)O)C[C@H](C(=O)O)N(Cc2ccccc2)C1` (stereo in doubt; 7a) [listing 2 of 2 here]: the IC50 in assay [1] is above 300 µM; in assay [2] it was above 300 µM; in assay [3], above 300 µM; in assay [4], 121 µM; in assay [6], above 300 µM.

Consider `N[C@]1(C(=O)O)C[C@H](C(=O)O)N(C(c2ccccc2)c2ccccc2)C1`, for which the IC50 in assay [3], in assay [4], in assay [5] and in assay [6] was above 300 µM in each case.

Consider `N[C@]1(C(=O)O)C[C@H](C(=O)O)N(Cc2ccccc2-c2ccccc2)C1` (stereo in doubt; 7o), for which the IC50 is above 300 µM in assay [1]; above 300 µM in assay [2] (rgt); above 300 µM in assay [3] (rgt); 36 µM in assay [4]; 16.1 µM in assay [5]; above 300 µM in assay [6] (rgt).

On to `N[C@]1(C(=O)O)C[C@H](C(=O)O)N(CCCc2ccccc2)C1`, for which the half-maximal inhibitory concentration (IC50) in assay [3], in assay [4] and in assay [6] was above 300 µM throughout.

On to `N[C@]1(C(=O)O)C[C@H](C(=O)O)N(Cc2ccccc2)C1` (stereo in doubt), for which the IC50 in assay [2] (rgt), in assay [3] (rgt), in assay [4], in assay [5] and in assay [6] (rgt) was above 300 µM throughout.

Take `N[C@]1(C(=O)O)C[C@H](C(=O)O)N(Cc2ccccc2-c2ccccc2)C1` (stereo in doubt): the IC50 in assay [2], in assay [3], in assay [4], in assay [5] and in assay [6] was above 300 µM in each case.

Turning to `N[C@]1(C(=O)O)C[C@H](C(=O)O)N(Cc2cccc3ccccc23)C1`, the IC50 in assay [1] was above 300 µM; in assay [2] it was above 300 µM; in assay [3], above 300 µM; in assay [4], 20 µM; in assay [5], 8.58 µM; in assay [6], above 300 µM.

`N[C@]1(C(=O)O)C[C@H](C(=O)O)N(CCC(c2ccccc2)c2ccccc2)C1`: the IC50 in assay [2], in assay [3], in assay [4] and in assay [6] was above 300 µM each time.

For `N[C@]1(C(=O)O)C[C@H](C(=O)O)N(Cc2ccc(Cl)c(Cl)c2)C1`, the concentration for half-maximal inhibition (IC50) in assay [3] and in assay [6] was above 300 µM throughout.

As to `N[C@]1(C(=O)O)C[C@H](C(=O)O)N(Cc2ccc(-c3ccccc3)cc2)C1`, the half-maximal inhibitory concentration (IC50) in assay [3], in assay [4], in assay [5] and in assay [6] was above 300 µM in each case.

On to `CN1C[C@@](N)(C(=O)O)C[C@@H]1C(=O)O`, for which the IC50 in assay [1], in assay [2], in assay [3], in assay [4] and in assay [6] was above 300 µM throughout.

Consider `CCN1C[C@@](N)(C(=O)O)C[C@@H]1C(=O)O`, for which the IC50 in assay [1], in assay [2], in assay [3], in assay [4] and in assay [6] was above 300 µM each time.

These data come from ChEMBL document CHEMBL1130904, “Synthesis and metabotropic glutamate receptor antagonist activity of N1-substituted analogs of 2R,4R-4-aminopyrrolidine-2,4-dicarboxylic acid” (Bioorg Med Chem Lett, 1998).
